Columns and labels:
Type in all cases: cell-based, human
[1] = system: BRAFV600E melanoma cell lines; experiment: Hormonal co-treatment in vitro: apoptosis response to DT; conditions: cell culture, co-treatment with dabrafenib 1 μM and trametinib 100 nM, 72 hours
Description: (§1) In parallel, hormonal perturbations were evaluated in vitro using a panel of BRAFV600E melanoma cell lines derived from melanoma patients of the institution.
(§2) Melanoma cell lines derived from tumors of patients treated at UT MD Anderson Cancer Center under the TIL program were obtained from Dr. Chantale Bernatchez and Dr. Scott Woodman. For these studies, n=5 male (2373, 2400, 2650, 2800 and 624-mel) and n=5 female (2153, 2333, 2379, 2508, 2510) lines were selected based on carriage of BRAF^V600E/K mutations and avoidance of prior exposure in vivo to MAPK blockade therapies. Cells were maintained in phenol red-free RPMI-1640 supplemented with 10% heat-inactivated FBS, 1% GlutaMAX and 1% Pencillin/Streptomycin (all Gibco). LNCaP, MCF7 and PC3 cell lines were obtained from institutional stocks and maintained in RPMI-1640 supplemented as above (LNCaP, MCF7) or DMEM/F12 supplemented as above (PC3). […]
Cells were plated into 6-well plates at 250,000 cells/well in full growth media and allowed to adhere overnight prior to drug treatment as shown in results in reduced-serum medium (5% FBS, phenol red-free RPMI-1640). […] Data acquisition by flow cytometry was performed within 2 hours of cell harvest and analyzed in FlowJo after gating on cell size, singlets, and applying Curly Quadrant gates to PI vs YO-PRO-1 fluorescence.

[2] = system: BRAFV600E melanoma cell lines; experiment: Hormonal co-treatment in vitro: proliferative response to DT; conditions: cell culture, co-treatment with dabrafenib 1 μM and trametinib 100 nM
[3] = system: BRAFV600E melanoma cell lines; experiment: Hormonal co-treatment in vitro: cell cycle response to DT; conditions: cell culture, co-treatment with dabrafenib 1 μM and trametinib 100 nM
Description: as §1
as §2, with “(PC3). All cell lines were confirmed mycoplasma negative using the Lonza MycoALERT kit prior to use, and authenticated by STR profiling via the MD Anderson Characterized Cell Line Core.” for “(PC3).”

CNC(=O)c1ccc(N2C(=S)N(c3ccc(C#N)c(C(F)(F)F)c3)C(=O)C2(C)C)cc1F [enzalutamide]
no significant effects: effect on apoptosis response to DT treatment [1] | effect on proliferative response to DT treatment [2] | effect on cell cycle response to DT treatment [3]

C[C@]12CC[C@H]3[C@@H](CCC4=CC(=O)CC[C@@]43C)[C@@H]1CC[C@@H]2O [testosterone]
no significant effects: effect on apoptosis response to DT treatment [1] | effect on proliferative response to DT treatment [2] | effect on cell cycle response to DT treatment [3]

Reference: patent publication US20200164034A1, “METHODS FOR IMPROVING SEX-DIMORPHIC RESPONSES TO TARGETED THERAPY IN MELANOMA” (Board of Regents, The University of Texas System, priority 2018, published 2020)
